According to patent US20130239239A1, “LMCD1 CANCER MARKERS AND METHODS FOR THEIR USE” (Academia Sinica, priority 2012, published 2013):

Key:
[1] = system: Rac1 interaction with Rac1-specific GEFs TrioN, GEF-H1 and Tiam1; details: cited from earlier work
PLC/PRF/5 cells = assay: Trans-well migration assay in PLC/PRF/5 cells; type: cell-based, human; details: 10 nM 17β-estradiol, 24 hours
Experimental: For trans-well assay, 1×10^4 cells resuspended in serum-free medium were seeded into the upper chamber of an insert with an 8.0-μm pore size of polycarbonate membrane (BD Biosciences) and then placed into the bottom chamber containing 10% FBS as chemoattractant. Cells were allowed to migrate for 24 hours followed by methanol fixation and Giemsa staining (MERCK Darmstadt, Germany). Un-migrated cells on the membrane apical side were removed. Migrated cells were photographed with a phase contrast microscope and the number was counted by using Image-Pro Plus software. All experiments were performed in triplicates. […] Images in the top panel of FIG. 3e are representative of three independent experiments performed in triplicate. Quantification of average migrated cell number is shown in bar graphs below the images (±SEM).
(§1) Trans-well migration assays were performed as in Example 3. Expression of LMCD1-K237R in PLC/PRF/5 cells (1×10^5 cells) was induced by exposure to 10 nM 17β-estradiol. Results are provided in FIG. 4d, with some cells also being treated with the indicated shRNA. Images in FIG. 4d are representative of migration results from three independent experiments, with (+E2) and without (−E2) estradiol treatment. The migration results are quantified by bar graph in FIG. 4e (±SEM). […]

LMCD1-K237R = LMCD1-K237R expression in PLC/PRF/5 cells by reverse-transcription PCR; type: cell-based, human; details: 10 nM 17β-estradiol
Experimental: Five independent pLKO.1 lentiviral-based shRNA clones targeting human LMCD1 (NM_014583) from The RNAi Consortium (TRC) library were tested. […] Human shRNA for RAC1 (shRac1) was also obtained from TRC library with number TRCN0000004870: 5′-[…]-3′. pLKO.1-shLuc was used as control. To generate shRNA lentiviral particles, HEK293T cells were co-transfected with a plasmid mixture (pLKO.1-puro-shRNA, pCMVΔR8.91 packaging plasmid, and pMD.G envelope plasmid) by calcium phosphate protocol. Cell medium containing viral particles was collected three times at 24-hour intervals after transfection. The virus-containing medium was aliquoted and used to infect cells or stored at −80° C. until use. Ninety-six hours after infection, cells were subjected to further experimental assays or harvested for LMCD1 or Rac1 gene expression analysis by RT-PCR or Western blotting.
as §1

[2] = system: LMCD1 transfectants in SK-Hep1 cells; assay: Wound healing assay in LMCD1 stable transfectants of SK-Hep1 cells; details: dose dependent
Experimental: To test the hypothesis that LMCD1 mutants play a role in cell migration regulation, three different cell migration assays for reflecting alteration of directed migration, random migration, and chemotaxis were performed. Directed migration of these SK-Hep1 transfectants was inspected by wound healing assay. For the wound healing assay, cells were seeded in a 6-well plate at a confluent density and cultured overnight to grow into a monolayer. The culture was scratched with a p200 pipette tip, and the wound was allowed to close for 20 hours. The average reduction of distance between two wound edges was calculated to evaluate the rate of wound closure. […] Cells were photographed immediately after wounding (FIG. 7a upper) and 2 hours after wounding (FIG. 7a lower), with arrows indicating protrusion of cells at the wound edge. […] Images were obtained using an Olympus BX51 fluorescence microscope or a PerkinElmer Ultra View confocal microscope (PerkinElmer Life Sciences).
The bar graph to the right of the images in FIG. 4c provides quantification of average migration results, normalized to the mock cells (±SEM).

[3] = system: LMCD1 transfectants in SK-Hep1 cells; assay: Lamellipodia formation (Arp3 staining, cell morphology) in LMCD1 transfectants; type: cell-based, human; details: LMCD1-E135K and LMCD1-K237R cells
From the text: Coverslips were mounted on slides using […] mounting medium with DAPI (Vector Laboratories).

Rac1 Inhibitor W56: peptide comprising residues 45-60 of the guanine nucleotide exchange factor (GEF) recognition/activation site of Rac1 (MVDGKPVNLGLWDTAG; UniProt P63000 45-60, looked up, fragment)
inhibition of Rac1 interaction with Rac1-specific GEFs TrioN, GEF-H1 and Tiam1 [1]: selectively inhibits

C[C@]12CC[C@@H]3c4ccc(O)cc4CC[C@H]3[C@@H]1CC[C@@H]2O [estrogen, 17β-estradiol]
cell migration (PLC/PRF/5 cells): up-regulate
expression of LMCD1-K237R (LMCD1-K237R): up-regulate

CCN(CC)CCCC(C)Nc1nc(C)cc(Nc2ccc3nc(C)cc(N)c3c2)n1 (centres unmarked) [NSC23766]
cell mobility (wound closure) [2]: decreased
lamellipodia extension [3]: inhibited lamellipodia extension
